Data: US7276514B2, “Pyrroloquinoline quinone drugs for treatment of cardiac injury and methods of use thereof” (Charitable Leadership Foundation - Medical Technology …, priority 2002, dated 2007)
Entries after “also recorded” stand apart in the source; their conditions may differ.

Assays:
[1] = test system: adult cardiac mouse myocytes; assay: Cultured adult cardiac mouse myocytes exposed to severe hypoxia, viability by trypan blue exclusion; format: cell-based
Experimental: An in vitro model of cultured adult cardiac mouse myocytes was developed to study cardioprotection by PQQ. These cells are viable in culture for up to 48 hours at a physiologic pH and consist of >90% rod-shaped cells. These cells can be used readily for determination of cell viability by trypan blue exclusion, and for biochemical, immunochemical, and molecular studies. In this model, approximately 35% of the cells die when exposed to 0% oxygen in a hypoxia chamber for 2-3 hours. […] A higher concentration of PQQ (100 μM) is highly toxic under normoxic conditions as evidenced by 100% cell death.

[2] = test system: adult mouse cardiac myocytes; assay: Toxicity of PQQ to cultured adult mouse cardiac myocytes under normoxic conditions; format: cell-based; conditions: 100 μM PQQ
Experimental: The invention encompasses methods of treating or preventing cardiac injury caused by hypoxia or ischemia in a subject, wherein PQQ is administered to a subject in need thereof, such that hypoxia or ischemic-related injury is prevented or decreased. In certain embodiments, the PQQ is administered at a concentration of less than about 10 μM. In other embodiments, the PQQ is administered at a concentration in the range of about 10 nM to about 10 μM, about 10 nM to about 1 μM, 100 nM to about 10 μM, and 100 nM to about 500 nM. In still other embodiments of the invention, the PQQ is administered at a concentration such that the concentration of PQQ at the site of cardiac tissue is in the range of 10 nM to about 10 μM. PQQ may also be administered as a function of the subject's body weight. In some embodiments of the invention, PQQ is administered at a concentration of between about 1 μg/kg to 1 g/kg of a subject's body weight, including less than 500 mg/kg, 250 mg/kg, 100 mg/kg, 10 mg/kg, 5 mg/kg, 2 mg/kg, 1 mg/kg, 500 μg/kg, 250 μg/kg, 100 μg/kg, 10 μg/kg, 5 μg/kg, 2 μg/kg or 1 μg/kg. […]
An in vitro model of cultured adult cardiac mouse myocytes was developed to study cardioprotection by PQQ. […] These cells can be used readily for determination of cell viability by trypan blue exclusion, and for biochemical, immunochemical, and molecular studies. […]

[3] = test system: isolated mouse heart; assay: Ex vivo isolated mouse heart (Langendorff), 20 min ischemia followed by 30 min reperfusion
Experimental: Ex vivo studies were performed using an isolated mouse heart preparation employing the Langendorff technique. In this approach, the heart is removed and mounted on a perfusion apparatus in which drugs can be given via an aortic cannula. The heart is paced at a constant rate, and left ventricular developed pressure [LVDP; left ventricular systolic pressure minus left ventricular end-diastolic pressure], left ventricular end-diastolic pressure [LVEDP], and the maximum positive and negative first derivatives of left ventricular pressure [+dP/dtmax and −dP/dtmax] are recorded. The heart is equilibrated for 20 min. After drug or vehicle is infused, the heart is subjected to 20 min of ischemia [coronary flow completely stopped] followed by 30 min of reperfusion. Coronary sinus flow as a reflection of coronary blood flow is also measured. This protocol leads to severe myocardial injury as measured by hemodynamic parameters.

[4] = test system: cardiac myocytes; assay: Cultured cardiac myocytes subjected to oxidative stress by H2O2; format: cell-based
Experimental: Cultured cardiac myocytes are subjected to oxidative stress by in vitro administration of H2O2. Two studies are done, one in which PQQ is added in concentrations between 10 nM and less than 10 μM to cardiac myocytes, after which H2O2 is added. In the other study, cardiac myocytes are subjected to insult in vitro admininstration of H2O2 for two hours, after which PQQ is added in concentrations between 10 nM and less than 10 μM. In both studies, PQQ is found to be protective.

[5] = test system: isolated mouse heart; assay: Ex vivo isolated mouse heart (Langendorff), 20 min ischemia followed by 30 min reperfusion; conditions: 100 nM PQQ given at the time of onset of reperfusion
[6] = 100 nM PQQ infused for 2 minutes prior to ischemia

O=C(O)c1cc(C(=O)O)c2c(n1)C(=O)C(=O)c1cc(C(=O)O)[nH]c1-2 [PQQ, Pyrroloquinoline quinone]
proportion of viable cells (trypan blue exclusion) after hypoxia ([1]; 1 μM PQQ added 1 hour before severe hypoxia (0% oxygen for 2-3 hours)): significant increase
PQQ protection against hypoxia-induced cell death in presence of mitochondrial KATP channel inhibitor ([1]; 1 μM PQQ with 100 μM 5-hydroxydecanoic acid): not inhibited
PQQ protection in presence of mitochondrial KATP channel inhibitor (FIG. 2 legend) ([1]; 10 μM 5-hydroxydecanoic acid): not inhibited
toxicity to cultured adult mouse cardiac myocytes [2]: highly toxic; also recorded: observed
cell death ([2]; normoxic conditions): 100%
+dP/dtmax [3, 6]: track the LVDP results
left ventricular developed pressure (LVDP) [3, 6]: significant preservation; also recorded: preserves
left ventricular end-diastolic pressure (LVEDP) [3, 6]: preserves
−dP/dtmax [3, 6]: track the LVDP results
toxicity (FIG. 8) ([3]; 2 min pretreatment, 10 μM PQQ): toxicity occurs
hemodynamic response (FIG. 8) ([3]; 2 min pretreatment, PQQ between 10 nM and 1 μM): progressively favorable responses
infarct size ([3]; PQQ pretreatment at 10 μM): not reduced
infarct size ([3]; PQQ pretreatment between 10 nM and 1 μM): progressive reduction
coronary flow ([3]; PQQ pretreatment compared to control): significantly improved
protection of cardiac myocytes against H2O2 oxidative stress ([4]; PQQ between 10 nM and less than 10 μM added after two hours of H2O2): protective
protection of cardiac myocytes against H2O2 oxidative stress ([4]; PQQ between 10 nM and less than 10 μM added before H2O2): protective
hemodynamic response when given at onset of reperfusion (PQQ tre.) [5]: equivalent to pretreatment
